According to ChEMBL document CHEMBL4483862, “Open-source discovery of chemical leads for next-generation chemoprotective antimalarials” (2018):

Tested on: Plasmodium berghei
Test: Luciferase/luciferin-expressing antifolate-resistant parasites were used to infect a culture of HepG2 cells that were pre-incubated with compounds. Infected hepatocytes emit light due to the luciferase reaction. Assay results are presented as the percent inhibition of light emission compared to control. […]
Format: functional
Conditions: sporozoite; for IC90: read-out: LUCIFERASE INFECTION ASSAY - IC90

| Compound | IC90 [µM] | further results |
| --- | --- | --- |
| NS(=O)(=O)c1ccc(CCNc2nn3c(-c4cccc(OC(F)(F)F)c4)cnc3s2)cc1 | > 6.83 | IC50 (FFLUC_HILL_SLOPE 3.32, FFLUC_R_SQUARED 0.88, HEPG2TOX_HILL_SLOPE 6.82, HEPG2TOX_R_SQUARED 0.258, PBLUC_HILL_SLOPE 3.52, PBLUC_R_SQUARED 0.409, read-out: LUCIFERASE INFECTION ASSAY - IC50): 4 µM |
| O=[N+]([O-])c1ccc(-c2nnc(SCc3c(Cl)cccc3Cl)s2)o1 | > 8.5 | IC50 (FFLUC_HILL_SLOPE 3.16, FFLUC_R_SQUARED 0.676, read-out: LUCIFERASE INFECTION ASSAY - IC50): > 8.5 µM |
| CCCCCC1C/C(=C\c2ccc(C(F)(F)F)cc2)C(=O)/C(=C/c2ccc(C(F)(F)F)cc2)C1 (stereo not given) | > 6.87 | IC50 (FFLUC_HILL_SLOPE 3.17, FFLUC_R_SQUARED 0.803, HEPG2TOX_HILL_SLOPE 11.8, HEPG2TOX_R_SQUARED 0.221, PBLUC_HILL_SLOPE 15.7, PBLUC_R_SQUARED 0.195, read-out: LUCIFERASE INFECTION ASSAY - IC50): 6.26 µM |
| COCC(C)n1c(COc2ccccc2F)nnc1SC(C(=O)Nc1cc(C(F)(F)F)ccc1Cl)c1ccccc1 (stereo not given) | 9.85 | IC50 (FFLUC_HILL_SLOPE 3.29, FFLUC_R_SQUARED 0.0514, HEPG2TOX_HILL_SLOPE 2.28, HEPG2TOX_R_SQUARED 0.446, PBLUC_HILL_SLOPE 4.03, PBLUC_R_SQUARED 0.508, read-out: LUCIFERASE INFECTION ASSAY - IC50): 5.71 µM |
| O=C(c1ccccc1)c1cc(-c2nc3ccccc3[nH]2)c(-c2ccccc2)n2c1nc1ccccc12 | > 10 | IC50 (FFLUC_HILL_SLOPE 3.37, FFLUC_R_SQUARED 0.587, PBLUC_HILL_SLOPE 3.5, PBLUC_R_SQUARED 0.455, read-out: LUCIFERASE INFECTION ASSAY - IC50): 6.85 µM |
| O=C(Nc1nc(-c2c[nH]c3ccccc23)cs1)C1CCN(S(=O)(=O)/C=C/c2ccccc2)CC1 | > 10 | IC50 (FFLUC_HILL_SLOPE 3.31, FFLUC_R_SQUARED 0.738, HEPG2TOX_HILL_SLOPE 1.04, HEPG2TOX_R_SQUARED 0.854, PBLUC_HILL_SLOPE 3.38, PBLUC_R_SQUARED 0.26, read-out: LUCIFERASE INFECTION ASSAY - IC50): 5.31 µM |
| Cc1ccc(-n2c(Sc3ccc4nnnn4n3)nc3sc4c(c3c2=O)CCC(C)C4)cc1C (stereo not given) | > 10 | IC50 (FFLUC_HILL_SLOPE 3.23, FFLUC_R_SQUARED 0.696, PBLUC_HILL_SLOPE 2.23, PBLUC_R_SQUARED 0.861, read-out: LUCIFERASE INFECTION ASSAY - IC50): 4.15 µM |
| CC(NC(=O)c1cc(C2CC2)nn1-c1ccccc1)c1ccc(F)cc1F (stereo not given) | > 10 | IC50 (FFLUC_HILL_SLOPE 3.16, FFLUC_R_SQUARED 0.345, read-out: LUCIFERASE INFECTION ASSAY - IC50): > 10 µM |
| N#CC(C#N)=C/C=C(/Sc1ccc(F)c(Cl)c1)c1ccc(Cl)cc1 | 7.65 | IC50 (FFLUC_HILL_SLOPE 3.34, FFLUC_R_SQUARED 0.746, HEPG2TOX_HILL_SLOPE 5.06, HEPG2TOX_R_SQUARED 0.992, PBLUC_HILL_SLOPE 1.74, PBLUC_R_SQUARED 0.619, read-out: LUCIFERASE INFECTION ASSAY - IC50): 2.17 µM |
| CCOC(=O)c1c(S(=O)(=O)N2CCN(Cc3ccccc3)CC2)c(-c2ccccc2)n(-c2ccccc2)c1C | > 6.07 | IC50 (FFLUC_HILL_SLOPE 3.32, FFLUC_R_SQUARED 0.581, read-out: LUCIFERASE INFECTION ASSAY - IC50): > 6.07 µM |
| COc1ccc(Cl)cc1NC(=O)COC(=O)COc1ccc(/C=C2\SC(=S)N(c3cccc(C(F)(F)F)c3)C2=O)cc1OC | > 10 | IC50 (FFLUC_HILL_SLOPE 3.19, FFLUC_R_SQUARED 0.292, read-out: LUCIFERASE INFECTION ASSAY - IC50): > 10 µM |
| CCOC(=O)c1sc(NC(=O)c2cccc(S(=O)(=O)N(C)c3ccc(OC)cc3)c2)cc1C | 9.74 | IC50 (FFLUC_HILL_SLOPE 3.21, FFLUC_R_SQUARED 0.745, HEPG2TOX_HILL_SLOPE 15.7, HEPG2TOX_R_SQUARED 0.428, PBLUC_HILL_SLOPE 5.31, PBLUC_R_SQUARED 0.793, read-out: LUCIFERASE INFECTION ASSAY - IC50): 6.44 µM |
| COc1cc(Cl)c(C)cc1-n1c(SC(C(C)=O)c2ccccc2)nc2ccccc2c1=O (stereo not given) | > 10 | IC50 (FFLUC_HILL_SLOPE 3.43, FFLUC_R_SQUARED 0.242, HEPG2TOX_HILL_SLOPE 4.83, HEPG2TOX_R_SQUARED 0.785, PBLUC_HILL_SLOPE 3.87, PBLUC_R_SQUARED 0.683, read-out: LUCIFERASE INFECTION ASSAY - IC50): 6.65 µM |
| O=C(CCCc1ccc(F)cc1)c1ccc2c(c1)OCCO2 | 0.926 | IC50 (FFLUC_HILL_SLOPE 3.34, FFLUC_R_SQUARED 0.538, PBLUC_HILL_SLOPE 0.746, PBLUC_R_SQUARED 0.706, read-out: LUCIFERASE INFECTION ASSAY - IC50): 0.0487 µM |
| CC1CCc2sc(C(=O)N/N=C/c3sc(N4CCCCC4)nc3-c3cccs3)cc2C1 (stereo not given) | 5.03 | IC50 (FFLUC_HILL_SLOPE 3.43, FFLUC_R_SQUARED 0.712, HEPG2TOX_HILL_SLOPE 2.9, HEPG2TOX_R_SQUARED 0.728, PBLUC_HILL_SLOPE 3.74, PBLUC_R_SQUARED 0.491, read-out: LUCIFERASE INFECTION ASSAY - IC50): 2.79 µM |
| O=C(Nc1ccc2c(c1)OC1(CCCCC1)O2)c1ccc[nH]c1=O | > 10 | IC50 (FFLUC_HILL_SLOPE 3.32, FFLUC_R_SQUARED 0.581, PBLUC_HILL_SLOPE 0.537, PBLUC_R_SQUARED 0.823, read-out: LUCIFERASE INFECTION ASSAY - IC50): 0.172 µM |
| CCOc1c(Br)cc(C2NCC(c3cccc(OC)c3OC)c3c2[nH]c2ccccc32)cc1OC (stereo not given) | > 10 | IC50 (FFLUC_HILL_SLOPE 3.42, FFLUC_R_SQUARED 0.537, read-out: LUCIFERASE INFECTION ASSAY - IC50): > 10 µM |
| Cc1cc(C2=NNC(=NC(C)(C)C)SC2)c(C)n1-c1ccccc1 | > 10 | IC50 (FFLUC_HILL_SLOPE 3.44, FFLUC_R_SQUARED 0.101, read-out: LUCIFERASE INFECTION ASSAY - IC50): > 10 µM |
| COc1cc(/C=N/Nc2ccc(C(F)(F)F)cn2)ccc1OS(=O)(=O)c1ccc(C)c([N+](=O)[O-])c1 | > 10 | IC50 (FFLUC_HILL_SLOPE 3.31, FFLUC_R_SQUARED 0.75, read-out: LUCIFERASE INFECTION ASSAY - IC50): > 10 µM |
| Clc1cc2c(c3ncccc13)OCN(Cc1ccco1)C2 | 1.44 | IC50 (FFLUC_HILL_SLOPE 3.15, FFLUC_R_SQUARED 0.751, HEPG2TOX_HILL_SLOPE 1.67, HEPG2TOX_R_SQUARED 0.873, PBLUC_HILL_SLOPE 9.79, PBLUC_R_SQUARED 0.762, read-out: LUCIFERASE INFECTION ASSAY - IC50): 1.15 µM |
| COc1ccc(/C=C(\C#N)C(=O)N(CCCN2C(=O)c3cccc4cccc(c34)C2=O)c2ccc(C)cc2C)cc1 | > 10 | IC50 (FFLUC_HILL_SLOPE 3.25, FFLUC_R_SQUARED 0.523, read-out: LUCIFERASE INFECTION ASSAY - IC50): > 10 µM |
| Cc1ccc2nc(NC(=O)c3cccc(Cl)c3)c(C(=O)NCC(C)C)n2c1 | 1.3 | IC50 (FFLUC_HILL_SLOPE 3.3, FFLUC_R_SQUARED 0.594, HEPG2TOX_HILL_SLOPE 1.2, HEPG2TOX_R_SQUARED 0.909, PBLUC_HILL_SLOPE 9.89, PBLUC_R_SQUARED 0.561, read-out: LUCIFERASE INFECTION ASSAY - IC50): 1.04 µM |
| NC(=O)c1ccsc1NC(=O)Cc1coc2cc3c(cc12)CCC3 | 3.88 | IC50 (FFLUC_HILL_SLOPE 3.24, FFLUC_R_SQUARED 0.678, PBLUC_HILL_SLOPE 11.8, PBLUC_R_SQUARED 0.833, read-out: LUCIFERASE INFECTION ASSAY - IC50): 3.22 µM |
| O=C(Nc1nonc1-c1ccc(Cl)cc1)C(c1ccccc1)c1ccccc1 | 8.22 | IC50 (FFLUC_HILL_SLOPE 3.18, FFLUC_R_SQUARED 0.644, PBLUC_HILL_SLOPE 3.44, PBLUC_R_SQUARED 0.465, read-out: LUCIFERASE INFECTION ASSAY - IC50): 4.34 µM |
| CCCC(C)C(=O)Nc1nc2ccc(C)cn2c1C(=O)NC1CCCCC1 (stereo not given) | > 8.91 | IC50 (FFLUC_HILL_SLOPE 3.24, FFLUC_R_SQUARED 0.792, read-out: LUCIFERASE INFECTION ASSAY - IC50): > 8.91 µM |
| NC(=O)C1CCN(c2nc(-c3ccc(Cl)cc3)nc3sc4c(c23)CCC4)CC1 | 3.79 | IC50 (FFLUC_HILL_SLOPE 3.15, FFLUC_R_SQUARED 0.774, HEPG2TOX_HILL_SLOPE 6.41, HEPG2TOX_R_SQUARED 0.32, PBLUC_HILL_SLOPE 20.1, PBLUC_R_SQUARED 0.486, read-out: LUCIFERASE INFECTION ASSAY - IC50): 3.4 µM |
| O=C(NNC1=NN(c2ccccc2)c2ccc(Br)cc2N1)c1ccc(F)cc1 | > 10 | IC50 (FFLUC_HILL_SLOPE 3.33, FFLUC_R_SQUARED 0.811, read-out: LUCIFERASE INFECTION ASSAY - IC50): > 10 µM |
| CC(C)NC(=S)N/N=C1\C(=O)Nc2ccc(C(C)C)cc21 | 4.02 | IC50 (FFLUC_HILL_SLOPE 3.36, FFLUC_R_SQUARED 0.392, HEPG2TOX_HILL_SLOPE 1.41, HEPG2TOX_R_SQUARED 0.93, PBLUC_HILL_SLOPE 4.04, PBLUC_R_SQUARED 0.837, read-out: LUCIFERASE INFECTION ASSAY - IC50): 2.33 µM |
| O=C(Cc1cccs1)NCC(c1ccccc1Cl)c1c[nH]c2ccccc12 (stereo not given) | 9.35 | IC50 (FFLUC_HILL_SLOPE 3.31, FFLUC_R_SQUARED 0.784, PBLUC_HILL_SLOPE 3.75, PBLUC_R_SQUARED 0.47, read-out: LUCIFERASE INFECTION ASSAY - IC50): 5.2 µM |
| Oc1c(C(Nc2ccccn2)c2ccc(Cl)cc2Cl)ccc2cccnc12 (stereo not given) | 5.13 | IC50 (FFLUC_HILL_SLOPE 3.3, FFLUC_R_SQUARED 0.0348, HEPG2TOX_HILL_SLOPE 1.34, HEPG2TOX_R_SQUARED 0.812, PBLUC_HILL_SLOPE 6.8, PBLUC_R_SQUARED 0.449, read-out: LUCIFERASE INFECTION ASSAY - IC50): 3.71 µM |
